Like-named read-outs stand apart in the source and are kept apart here. Marks after values point to notes of the source that are not given here.
Assays:
TraR [1] = target: T1, TraR (Agrobacterium tumefaciens, UniProt P33905); test: Agrobacterium tumefaciens reporter gene assay, WCF47(pCF372), β-galactosidase (Miller) readout; type: cell-based; conditions: for activity against TraR in A. tumefaciens: antagonism screen in presence of native ligand 8b; for A. tumefaciens β-galactosidase activity [Miller units] 10^4 nM: antagonism, compound at 10^4 nM screened against 100 nM 8b, strain WCF47(pCF372); for activity relative to previously reported antagonists 7g, 8f and 9: controls at 10 μM
T1 construct: Both of these reporter strains lack their native AHL synthases, yet retain active LuxR-type receptors (LasR and TraR proteins, respectively); endogenous in cells; host or cells: A. tumefaciens WCF47(pCF372)
T1 sequence (P33905 whole entry): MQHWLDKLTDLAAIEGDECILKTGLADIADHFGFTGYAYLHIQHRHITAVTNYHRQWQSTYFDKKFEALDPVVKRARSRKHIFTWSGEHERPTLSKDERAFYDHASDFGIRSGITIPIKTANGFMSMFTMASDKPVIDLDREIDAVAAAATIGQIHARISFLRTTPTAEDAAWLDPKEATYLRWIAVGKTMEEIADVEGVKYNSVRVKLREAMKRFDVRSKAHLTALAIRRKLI
Text: (§1) The AHL library constructed by the schema described above, was screened in two bacterial reporter strains for antagonism of quorum sensing: 1) P. aeruginosa PAO-JP2(plasI-LVAgfp), (De Kievit, T. R.; Gillis, R.; Marx, S.; Brown, C.; Iglewski, B. H. Appl. Environ. Microbiol. 2001, 67, 1865-1873) and 2) A. tumefaciens WCF47 (pCF372). Examination of these two strains was valuable for two reasons: 1) the direct clinical relevance of P. aeruginosa, and 2), the extensive body of biochemical and structural data for TraR in A. tumefaciens. Both of these reporter strains lack their native AHL synthases, yet retain active LuxR-type receptors (LasR and TraR proteins, respectively); exogenous ligand is required for receptor activation, which can be measured by fluorescence (green fluorescent protein (GFP) for LasR) or absorbance (via β-galactosidase activity for TraR) measurements.
An appropriate amount of concentrated AHL stock solution, to give a final concentration of 100 nM, was added to an empty culture tube, and the solvent was allowed to evaporate. An overnight culture of A. tumefaciens WCF47(pCF372) was diluted to an OD600 (optical density) of 0.1 in fresh AB minimal medium containing 400 μg/mL octopine and 50 μg/mL streptomycin. A 1 mL portion of the diluted culture was added to the tubes containing AHLs. Tubes were grown at 28° C. for 12-16 h in a rotary shaking incubator (200 rpm).
The cultures were then assayed for β-galactosidase activity following the Miller assay method. Briefly, 100 μL aliquots of bacteria from each of the tubes were added to wells of a polystyrene 96-well plate and the OD600 of each well was recorded. Next, […] aliquots from each well were transferred to a solvent resistant 96-well plate containing 200 μL Z buffer, 8 μL CHCl3 and 4 μL, 0.1% aq. sodium dodecylsulfate (SDS). This suspension was mixed via repetitive pipetting, after which the CHCl3 was allowed to settle. A 100 μL aliquot from each well was transferred to a fresh polystyrene 96-well plate, and 20 μL of substrate, o-nitrophenyl-β-D-galactopyranoside (ONPG, […] in phosphate buffer), was added at time zero. After the development of appropriate yellow color (ca. 15-35 minutes), the reaction was terminated by the addition of 50 μL of 1 M Na2CO3. Absorbance at 420 nm and 550 nm was measured for each well using a plate reader, and Miller units were calculated according to standard methods.
Similar methods were used for antagonism assays, except the concentration of AHL analog used was 10^4 nM, and OOHL (8b) stock solution was added to each tube such that its concentration was 100 nM (FIG. 30). […] All assays were performed in triplicate.

TraR [2] = target: T1, TraR; test: as above; type: cell-based; conditions: for A. tumefaciens β-galactosidase activity [Miller units] 100 nM: antagonism, compound at 100 nM screened against 100 nM 8b, strain WCF47(pCF372)
LasR = target: T2, LasR (Pseudomonas aeruginosa, UniProt P25084); test: Pseudomonas aeruginosa reporter gene assay, PAO-JP2(plasI-LVAgfp), GFP fluorescence readout; type: cell-based; conditions: for antagonism against LasR in P. aeruginosa: antagonism screen in presence of native ligand 8d; for P. aeruginosa Relative fluorescence [%] 12.5 μM / P. aeruginosa Relative fluorescence [%] 400 μM: antagonism, relative to agonism by 8d at 1 μM set to 100%; for P. aeruginosa Relative fluorescence [%] 12.5 μM: compound at 12.5 μM screened against 1 μM 8d; for P. aeruginosa Relative fluorescence [%] 400 μM: compound at 400 μM screened against 1 μM 8d; for activity relative to the three controls (7g, 8f, 9): at 400 μM
T2 construct: Both of these reporter strains lack their native AHL synthases, yet retain active LuxR-type receptors (LasR and TraR proteins, respectively); endogenous in cells; host or cells: P. aeruginosa PAO-JP2(plasI-LVAgfp)
T2 sequence (P25084 whole entry): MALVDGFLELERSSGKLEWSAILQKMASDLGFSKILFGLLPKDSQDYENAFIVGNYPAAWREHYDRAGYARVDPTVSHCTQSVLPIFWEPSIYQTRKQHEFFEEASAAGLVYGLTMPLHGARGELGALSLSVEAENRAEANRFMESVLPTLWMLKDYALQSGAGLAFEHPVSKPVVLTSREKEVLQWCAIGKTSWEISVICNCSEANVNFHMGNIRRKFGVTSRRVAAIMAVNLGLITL
Text: as §1
An appropriate amount of concentrated stock solution, to give a final concentration of 1 μM, was added to a polypropylene 96-well plate, and the solvent was allowed to evaporate. An overnight culture of P. aeruginosa PAO-JP2(plasI-LVAgfp) was diluted to an OD600 of 0.1 in fresh LB medium containing 200 μg/mL carbenicillin. 200 μL of the diluted culture was added to each well of the plate and incubated at 37° C. for 6 h in a rotary shaking incubator (200 rpm). Cultures were transferred to a polystyrene 96-well plate, GFP expression was measured using a plate reader, and this value was normalized to cell density. Similar methods were used for antagonism assays, illustrated in FIG. […] All assays were performed in triplicate.

[3] = system: P. aeruginosa (PAO1(pLVAgfp)) biofilm formation; test: Static biofilm assay, scanning laser confocal microscopy; type: cell-based, Pseudomonas aeruginosa; conditions: 48 h; for P. aeruginosa biofilm formation: 50 μM ligand, glass slides; for dose dependence of biofilm disruption: 50, 25 and 12.5 μM
Protocol: Standard static biofilm assays were performed using a P. aeruginosa (PAO1(pLVAgfp)) strain that constitutively produces GFP to facilitate visualization. Biofilms were grown in the absence of ligand (FIG. 34A) and in the presence of 50 μM synthetic ligands 7h (FIG. 34B) or 7o (FIG. 34C), for 48 h and visualized using scanning laser confocal microscopy.
Standard static biofilm assays were performed using a P. aeruginosa PAO1(pTdK-GFP). In brief, an overnight culture was diluted to an OD600 of 0.1 in fresh M9 medium containing 200 μg/mL carbenicillin. This diluted culture was added to a tube containing 50 μM antagonist. Biofilms were grown in the absence of ligand, FIG. 35A; in the presence synthetic ligand 7h, FIG. 35B; and in the presence of synthetic ligand 7o, FIG. 35C (both at 50 μM) for 48 h and visualized using scanning laser confocal microscopy. A sterilized glass coverslip was added to each tube, and the culture was incubated at 37° C. for 48 h without shaking. Coverslips were removed, washed with phosphate buffered saline, and examined using scanning laser confocal microscopy methods. Top-down Z series were collected over a distance of ca. 100 μm. Images in FIGS. 35-37 are representative of several experiments performed on separate days.

Q: Which IC50 (TraR [1]) does the source give for O=C(CC1C=CCC1)N[C@H]1CCOC1=O (stereo partly drawn) [Compound 7k, N-(2-cyclopentene-1-acetanoyl)-L-homoserine lactone] here?
A: 1 µM

Q: And the “activity against TraR in A. tumefaciens” value (TraR [1])?
A: significant activity

Q: What about the “A. tumefaciens β-galactosidase activity [Miller units] 10^4 nM” value (TraR [1]) of the same molecule?
A: 19 ± 8 Miller units

Q: And the “activity relative to previously reported antagonists 7g, 8f and 9” value (TraR [1])?
A: one to two orders of magnitude more active

Q: And the “A. tumefaciens β-galactosidase activity [Miller units] 100 nM” value (TraR [2])?
A: 306 ± 8 Miller units

Q: And the IC50 (LasR)?
A: 33.1 µM

Q: What about the “antagonism against LasR in P. aeruginosa” value (LasR) of the same molecule?
A: identified as antagonists

Q: What about the “P. aeruginosa Relative fluorescence [%] 12.5 μM” value (LasR) of the same molecule?
A: 72 ± 8%

Q: What about the “P. aeruginosa Relative fluorescence [%] 400 μM” value (LasR) of the same molecule?
A: 24 ± 7%

Q: For CCCCCC(=O)CC(=O)N[C@@H]1CCOC1=O [Compound 8b, N-(3-oxo-octanoyl)-L-homoserine lactone, reference compound], which “A. tumefaciens β-galactosidase activity [Miller units], control agonism activity” value (TraR [1]; Control: agonism activity at 100 nM 8b alone) is on record?
A: 385 ± 35^g Miller units

Q: With CCCCCCCCCC(=O)CC(=O)Nc1ccccc1O [Compound 9, reference compound] as the molecule, how does the IC50 (TraR [1]) read?
A: 4.7 µM

Q: What about the “A. tumefaciens β-galactosidase activity [Miller units] 10^4 nM” value (TraR [1]) of the same molecule?
A: 186 ± 15 Miller units

Q: And the “A. tumefaciens β-galactosidase activity [Miller units] 100 nM” value (TraR [2])?
A: 396 ± 27 Miller units

Q: And the IC50 (LasR)?
A: 37.3 µM

Q: And the “P. aeruginosa Relative fluorescence [%] 12.5 μM” value (LasR)?
A: 63 ± 8%

Q: What about the “P. aeruginosa Relative fluorescence [%] 400 μM” value (LasR) of the same molecule?
A: 23 ± 7%

Q: For CCCCCCC(=O)N[C@H]1CCOC1=O [Compound 7g, N-heptanoyl-L-homoserine lactone, reference compound], which IC50 (TraR [1]) is on record?
A: 0.13 µM

Q: What about the “A. tumefaciens β-galactosidase activity [Miller units] 10^4 nM” value (TraR [1]) of the same molecule?
A: 34 ± 6 Miller units

Q: What about the “A. tumefaciens β-galactosidase activity [Miller units] 100 nM” value (TraR [2]) of the same molecule?
A: 226 ± 30 Miller units

Q: And the IC50 (LasR)?
A: 51.5 µM

Q: And the “P. aeruginosa Relative fluorescence [%] 12.5 μM” value (LasR)?
A: 78 ± 9%

Q: What about the “P. aeruginosa Relative fluorescence [%] 400 μM” value (LasR) of the same molecule?
A: 29 ± 9%

Q: How did the “P. aeruginosa Relative fluorescence [%], control relative agonism activity” value (LasR; Control: relative agonism activity at 1 μM 8d (not at 12.5 μM)) turn out when CCCCCCCCCC(=O)CC(=O)N[C@@H]1CCOC1=O [Compound 8d, N-(3-oxo-dodecanoyl)-L-homoserine lactone, reference compound] was run?
A: 100 ± 8^h %

Q: For O=C(CCCc1c[nH]c2ccccc12)N[C@@H]1CCOC1=O [Compound 7h, N-(indole-3-butanoyl)-L-homoserine lactone], which IC50 (TraR [1]) is on record?
A: 1.1 µM

Q: And the “activity against TraR in A. tumefaciens” value (TraR [1])?
A: significant activity

Q: What about the “A. tumefaciens β-galactosidase activity [Miller units] 10^4 nM” value (TraR [1]) of the same molecule?
A: 150 ± 14 Miller units

Q: What about the “activity relative to previously reported antagonists 7g, 8f and 9” value (TraR [1]) of the same molecule?
A: one to two orders of magnitude more active

Q: What about the “A. tumefaciens β-galactosidase activity [Miller units] 100 nM” value (TraR [2]) of the same molecule?
A: 245 ± 14 Miller units

Q: What about the IC50 (LasR) of the same molecule?
A: 14.8 µM

Q: And the “antagonism against LasR in P. aeruginosa” value (LasR)?
A: identified as antagonists

Q: And the “P. aeruginosa Relative fluorescence [%] 12.5 μM” value (LasR)?
A: 52 ± 8%

Q: What about the “P. aeruginosa Relative fluorescence [%] 400 μM” value (LasR) of the same molecule?
A: 14 ± 4%

Q: What about the “activity relative to the three controls (7g, 8f, 9)” value (LasR) of the same molecule?
A: twice as active

Q: What about the “inhibition (LasR antagonism)” value (LasR; at a 12.5:1 ratio with native ligand 8d) of the same molecule?
A: 50%

Q: And the “P. aeruginosa biofilm formation” value [3]?
A: strongly inhibit

Q: And the “dose dependence of biofilm disruption” value [3]?
A: dose-dependent disruption

Q: With O=C(Cc1ccc(Br)cc1)N[C@H]1CCOC1=O [Compound 7o, N-(4-bromophenylacetanoyl)-L-homoserine lactone] as the molecule, how does the “activity against TraR in A. tumefaciens” value (TraR [1]) read?
A: significant activity

Q: What about the “A. tumefaciens β-galactosidase activity [Miller units] 10^4 nM” value (TraR [1]) of the same molecule?
A: 0 ± 4 Miller units

Q: And the “activity relative to previously reported antagonists 7g, 8f and 9” value (TraR [1])?
A: one to two orders of magnitude more active

Q: And the IC50 (TraR [1]; screened against 100 nM 8b, sigmoidal dose-response curve fit, read-out: A. tumefaciens IC50)?
A: 0.25 µM

Q: What about the “A. tumefaciens β-galactosidase activity [Miller units] 100 nM” value (TraR [2]) of the same molecule?
A: 193 ± 9 Miller units

Q: And the inhibition at 0.1 µM (TraR [2]; read-out: inhibition (TraR antagonism))?
A: 50%

Q: What about the “antagonism against LasR in P. aeruginosa” value (LasR) of the same molecule?
A: identified as antagonists

Q: What about the “P. aeruginosa Relative fluorescence [%] 12.5 μM” value (LasR) of the same molecule?
A: 58 ± 21%

Q: And the “P. aeruginosa Relative fluorescence [%] 400 μM” value (LasR)?
A: 14 ± 5%

Q: And the “activity relative to the three controls (7g, 8f, 9)” value (LasR)?
A: twice as active

Q: And the IC50 (LasR; screened against 1 μM 8d, sigmoidal dose-response curve fit, read-out: P. aeruginosa IC50)?
A: 16.1 µM

Q: What about the “P. aeruginosa biofilm formation” value [3] of the same molecule?
A: strongly inhibit

Q: What about the “dose dependence of biofilm disruption” value [3] of the same molecule?
A: dose-dependent disruption

Q: What does the source list for O=C(CC(=O)N[C@H]1CCOC1=O)Cc1ccccc1 [Compound 8f, N-(3-oxo-4-phenylbutanoyl)-L-homoserine lactone, reference compound]?
A: IC50 (TraR [1]): 0.59 µM; A. tumefaciens β-galactosidase activity [Miller units] 10^4 nM (TraR [1]): 51 ± 22 Miller units; A. tumefaciens β-galactosidase activity [Miller units] 100 nM (TraR [2]): 310 ± 6 Miller units; IC50 (LasR): 53.6 µM; P. aeruginosa Relative fluorescence [%] 12.5 μM (LasR): 82 ± 18%; P. aeruginosa Relative fluorescence [%] 400 μM (LasR): 27 ± 9%

— patent publication US8269024B2, “Compounds and methods for modulating communication and virulence in quorum sensing bacteria” (priority 2005, dated 2012)
